Molecules are shown by their SMILES. Where only a bound is given, the exact number is not on record here.

For assay [1], the target named is T1, CGRP receptor (SK-N-MC membrane) (Homo sapiens, UniProt O60894+Q16602).
T1 construct: Purified SK-N-MC membrane was purchased from Perkin Elmer; purchased Perkin Elmer; host or cells: SK-N-MC membrane
Nature of the assay: I125-CGRP binding displacement assay on purified SK-N-MC membrane. The method, then:
Purified SK-N-MC membrane was purchased from Perkin Elmer. The membrane was thawed quickly and placed on ice. The compounds were diluted with CGRP binding solution (25 mM Tris-HCl, pH7.4, 5 mM MgCl2, 0.1% BSA and 0.05% Tween). The membrane was diluted 1:20 with the binding solution and homogenized with Tissue Matster-50 Homogenizer (Omni International) for 30 sec. The homogenized membrane was added to compounds in the binding solution. […] After 2 hour incubation at room temperature, the reaction was stopped by rapid filtration through 0.5% PEI treated GF/C filter plate (Perkin Elmer) and the filter plate was washed with ice-cold washing solution (50 mM Tris HCl, pH7.4, 5 mM MgCl2 and 0.1% BSA) using cell harvestor (Tomtec). The radioactivity of the filter plates were read on Topcount (Packard). The nonspecific binding was determined in the control reaction where 1 uM unlabelled CGRP was preincubated with the membrane prior to I125-CGRP addition. The total binding was determined in the control reaction of the membrane and I125-CGRP in the absence of compound. The percent displacement of I125-CGRP with compounds was calculated using nonspecific and total binding controls. The curve fitting was carried out using MOD3.

Assay [2] addresses endogenous CGRP receptor (Homo sapiens, UniProt O60894+Q16602). The assay is described as follows: CGRP functional antagonism using SK-N-MC-BLA (4C10), β-lactamase transcriptional reporter assay. The assay is classed as cell-based. The conditions noted are these: SK-N-MC (4C10) cells, inhibition of β-lactamase expression in the presence of 200 pM CGRP.

T1 sequence (Q16602 23-461): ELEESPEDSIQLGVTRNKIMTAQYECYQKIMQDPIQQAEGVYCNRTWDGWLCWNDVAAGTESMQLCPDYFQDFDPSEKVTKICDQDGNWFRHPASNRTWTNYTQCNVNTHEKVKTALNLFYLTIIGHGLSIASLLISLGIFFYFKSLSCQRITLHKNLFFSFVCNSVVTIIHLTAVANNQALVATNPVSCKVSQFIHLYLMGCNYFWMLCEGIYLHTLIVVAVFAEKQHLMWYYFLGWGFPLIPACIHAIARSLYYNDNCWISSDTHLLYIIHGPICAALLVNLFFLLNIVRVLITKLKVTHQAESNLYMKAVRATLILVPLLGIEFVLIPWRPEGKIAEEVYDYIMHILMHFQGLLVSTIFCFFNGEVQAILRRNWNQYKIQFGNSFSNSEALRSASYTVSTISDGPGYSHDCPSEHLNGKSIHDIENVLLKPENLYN
T1 sequence (O60894 27-148): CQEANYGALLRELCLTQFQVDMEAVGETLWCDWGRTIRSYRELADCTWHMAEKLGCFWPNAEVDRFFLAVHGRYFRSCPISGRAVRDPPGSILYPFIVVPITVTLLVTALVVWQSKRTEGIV
endogenous CGRP receptor, sequence (Q16602 23-461): as the sequence (Q16602 23-461) above
endogenous CGRP receptor, sequence (O60894 27-148): as the sequence (O60894 27-148) above

`CC(C)(C)CCN1C(=O)[C@H](CC(=O)N2CCC(N3CCc4ccccc4NC3=O)CC2)SC1c1ccccc1C1CCN(C(=O)OC(C)(C)C)CC1` (mixture of isomers) [Compound 500] showed a Ki in assay [1] below 1000 nM. The IC50 in assay [2] was above 5000 nM. As for `CC(C)(C)CCN1C(=O)C(CC(=O)N2CCC(N3CCc4ccccc4NC3=O)CC2)SC1c1cccc(F)c1NCCN1CCOCC1` (stereo in doubt) [Compound 506, 3-(1-(2-((5S)-2-(2-(2-Morpholinoethylamino)-3-fluorophenyl)-3-(3,3-dimethylbutyl)-4-oxothiazolidin-5-yl)acetyl)piperidin-4-yl)-4,5-dihydro-1H-benzo[d][1,3]diazepin-2(3H)-one], the Ki in assay [1] was below 1000 nM. Moreover, in assay [2], the IC50 was below 1000 nM.

In the case of `CC(C)(C)CCN1C(=O)C(CC(=O)N2CCC(n3c(=O)[nH]c4ncccc43)CC2)SC1c1cccc(F)c1NCCN1CCOCC1` (stereo in doubt) [Compound 517, 1-(1-(2-((5S)-2-(2-(2-Morpholinoethylamino)-3-fluorophenyl)-3-(3,3-dimethylbutyl)-4-oxothiazolidin-5-yl)acetyl)piperidin-4-yl)-1H-imidazo[4,5-b]pyridin-2(3H)-one], the Ki in assay [1] was below 1000 nM. The concentration for half-maximal inhibition (IC50) in assay [2] is below 1000 nM. In turn, `O=C(CC1SC(c2ccccc2)N(C2CCCCC2)C1=O)N1CCC(N2Cc3ccccc3NC2=O)CC1` (stereo not drawn) [Compound 1] had a Ki in assay [1] below 1000 nM. Also, the IC50 in assay [2] was below 1000 nM.

`Cc1cc(C2SC(CC(=O)N3CCC(N4CCc5ccccc5NC4=O)CC3)C(=O)N2CCC(C)(C)C)cc2cn[nH]c12` (stereo not drawn) [Compound 3]: the Ki in assay [1] was below 1000 nM. The IC50 in assay [2] is below 1000 nM.

For `CC(C)(C)CCN1C(=O)C(CC(=O)N2CCC(N3CCc4ccccc4NC3=O)CC2)SC1c1ccccc1` (stereo not drawn) [Compound 8], the Ki in assay [1] is below 1000 nM. Further, the IC50 in assay [2] is below 1000 nM. In assay [1], `CC(C)CN1C(=O)C(CC(=O)N2CCC(N3Cc4ccccc4NC3=O)CC2)SC1c1ccccc1` (stereo not drawn) [Compound 9] returned a Ki below 1000 nM. Further, in assay [2], the 50% inhibitory concentration (IC50) was below 1000 nM. `CC(C)CCN1C(=O)C(CC(=O)N2CCC(N3CCc4ccccc4NC3=O)CC2)SC1c1ccccc1N1CCOCC1` (stereo not drawn) [Compound 10] yielded a Ki in assay [1] below 1000 nM. Further, the IC50 in assay [2] is below 1000 nM. Molecule `CC(C)CCN1C(=O)C(CC(=O)N2CCC(N3Cc4ccccc4NC3=O)CC2)SC1c1ccccc1` (stereo not drawn) [Compound 12] displayed a Ki in assay [1] below 1000 nM. In assay [2], the IC50 is below 1000 nM. In assay [1], `CC(C)CCN1C(=O)C(CC(=O)N2CCC(N3Cc4ccccc4NC3=O)CC2)SC12c1ccccc1-c1ccccc12` (stereo not drawn) [Compound 14] had an inhibition constant (Ki) below 1000 nM. For the same molecule, the IC50 in assay [2] was below 1000 nM. For the molecule `CC(C)(C)CCN1C(=O)C(CC(=O)N2CCC(N3CCc4ccccc4NC3=O)CC2)SC12CCSCC2` (stereo not drawn) [Compound 15], in assay [1], the Ki was below 1000 nM. Also, the IC50 in assay [2] was below 1000 nM. `O=C(CC1SC(c2c(F)cccc2F)N(CC2CCCCC2)C1=O)N1CCC(N2CCc3ccccc3NC2=O)CC1` (stereo not drawn) [Compound 16] had a Ki in assay [1] below 1000 nM. Besides, the IC50 in assay [2] was below 1000 nM. `COc1ccc(C2SC(CC(=O)N3CCC(n4cc(-c5ccccc5)[nH]c4=O)CC3)C(=O)N2CCC(C)C)cc1OC` (stereo not drawn) [Compound 19] displayed an inhibitory constant (Ki) in assay [1] above 5000 nM. Moreover, in assay [2], the concentration for half-maximal inhibition (IC50) is above 5000 nM. `Cc1cc(C2SC(CC(=O)N3CCC(N4CCc5ccccc5NC4=O)CC3)C(=O)N2CC2CCCCC2)cc2cn[nH]c12` (stereo not drawn) [Compound 20] gave a Ki in assay [1] below 1000 nM. For the same molecule, the IC50 in assay [2] was below 1000 nM. In the case of `CC(C)(C)CCN1C(=O)C(CC(=O)N2CCC(N3CCc4ccccc4NC3=O)CC2)SC1c1ccccc1-n1ccnc1` (stereo not drawn) [Compound 28], the inhibitory constant (Ki) in assay [1] is below 1000 nM. Besides, the IC50 in assay [2] was below 1000 nM. `COCCN1C(=O)C(CC(=O)N2CCC(N3Cc4ccccc4NC3=O)CC2)SC1c1ccccc1` (stereo not drawn) [Compound 30] registered a Ki in assay [1] below 1000 nM. The IC50 in assay [2] lay in the range of 1000 to 5000 nM. The matching figures for `CC(C)CCN1C(=O)C(CC(=O)N2CCC(N3Cc4ccccc4NC3=O)CC2)SC1c1cccc(Cl)c1` (stereo not drawn) [Compound 33]: below 1000 nM and below 1000 nM. For `CC(C)CCN1C(=O)C(CC(=O)N2CCC(N3CCc4ccccc4NC3=O)CC2)SC1C1CCCCC1` (stereo not drawn) [Compound 37], in assay [1], the Ki was below 1000 nM. Besides, the IC50 in assay [2] was below 1000 nM.

The molecule `Cc1cccc(C2SC(CC(=O)N3CCC(N4Cc5ccccc5NC4=O)CC3)C(=O)N2CCC(C)C)c1` (stereo not drawn) [Compound 41] came in with a Ki in assay [1] below 1000 nM. The IC50 in assay [2] was below 1000 nM.

Consider `CC(C)CC1SC(CC(=O)N2CCC(N3Cc4ccccc4NC3=O)CC2)C(=O)N1CCc1ccncc1` (stereo not drawn) [Compound 43], for which the Ki in assay [1] is below 1000 nM. Besides, in assay [2], the IC50 is 1000 to 5000 nM.

`CC(C)CCN1C(=O)C(CC(=O)N2CCC(N3CCc4ccccc4NC3=O)CC2)SC1c1ccc(F)cc1F` (stereo not drawn) [Compound 44] had a Ki in assay [1] below 1000 nM. For the same molecule, the IC50 in assay [2] is below 1000 nM.

`CC(C)(C)CCN1C(=O)C(CC(=O)N2CCC(N3CCc4ccccc4NC3=O)CC2)SC1c1cccc(F)c1F` (stereo not drawn) [Compound 48] returned a Ki in assay [1] below 1000 nM. The IC50 in assay [2] was below 1000 nM. As for `CC(C)(C)CCN1C(=O)C(CC(=O)N2CCC(N3Cc4ccccc4NC3=O)CC2)SC1c1ccccc1N1CCC(O)CC1` (stereo not drawn) [Compound 49], in assay [1], the Ki is below 1000 nM. Besides, in assay [2], the IC50 is below 1000 nM.

Molecule `O=C(CC1SC(c2ccccc2)N(CCc2ccncc2)C1=O)N1CCC(n2cc(-c3ccccc3)[nH]c2=O)CC1` (stereo not drawn) [Compound 53] gave a Ki in assay [1] above 5000 nM. The IC50 in assay [2] is above 5000 nM. For the molecule `CC(C)(C)CCN1C(=O)C(CC(=O)N2CCC(N3CCc4ccccc4NC3=O)CC2)SC1c1ccc(F)cc1F` (stereo not drawn) [Compound 54], the Ki in assay [1] is below 1000 nM. In addition, the IC50 in assay [2] is below 1000 nM.

As for `O=C(CC1SC(c2ccccc2)N(CCc2ccccc2)C1=O)N1CCC(N2Cc3ccccc3NC2=O)CC1` (stereo not drawn) [Compound 58], the Ki in assay [1] is below 1000 nM. Further, in assay [2], the IC50 is below 1000 nM. `CC(C)(C)CCN1C(=O)C(CC(=O)N2CCC(N3Cc4ccccc4NC3=O)CC2)SC1c1ccccc1-n1ccnc1` (stereo not drawn) [Compound 60] displayed a Ki in assay [1] below 1000 nM. In addition, the IC50 in assay [2] was below 1000 nM.

On to `COc1cccc(C2SC(CC(=O)N3CCC(n4cc(-c5ccccc5)[nH]c4=O)CC3)C(=O)N2CCC(C)C)c1` (stereo not drawn) [Compound 61], for which the Ki in assay [1] is above 5000 nM. In addition, the IC50 in assay [2] was in the range of 1000 to 5000 nM. With `CC(C)CCN1C(=O)C(CC(=O)N2CCC(N3Cc4ccccc4NC3=O)CC2)SC1c1ccc(C#N)cc1` (stereo not drawn) [Compound 63], the Ki in assay [1] was below 1000 nM. The IC50 in assay [2] is below 1000 nM. In turn, `COc1ccccc1C1SC(CC(=O)N2CCC(n3cc(-c4ccccc4)[nH]c3=O)CC2)C(=O)N1CCC(C)C` (stereo not drawn) [Compound 64] registered a Ki in assay [1] below 1000 nM. For the same molecule, the IC50 in assay [2] lay within 1000 to 5000 nM. For `CC(C)CCN1C(=O)C(CC(=O)N2CCC(N3Cc4ccccc4NC3=O)CC2)[S+]([O-])C1c1ccc(F)cc1F` (stereo not drawn) [Compound 66], the Ki in assay [1] is below 1000 nM. In addition, in assay [2], the IC50 is below 1000 nM. `CC(C)CCN1C(=O)C(CC(=O)N2CCC(N3Cc4ccccc4NC3=O)CC2)SC1c1cccc(F)c1` (stereo not drawn) [Compound 67] registered a Ki in assay [1] below 1000 nM. For the same molecule, the IC50 in assay [2] was below 1000 nM.

With `CC(C)(C)CCN1C(=O)C(CC(=O)N2CCC(N3CCc4ccccc4NC3=O)CC2)SC1c1ccccc1N1CCOCC1` (stereo not drawn) [Compound 70], the Ki in assay [1] was below 1000 nM. In addition, the IC50 in assay [2] is below 1000 nM. In assay [1], `CC(C)CCN1C(=O)C(CC(=O)N2CCC(N3Cc4ccccc4NC3=O)CC2)SC1c1c(Cl)cccc1Cl` (stereo not drawn) [Compound 76] displayed a Ki below 1000 nM. In assay [2], the IC50 is below 1000 nM. In assay [1], `CC(C)CCN1C(=O)C(CC(=O)N2CCC(N3CCc4ccccc4NC3=O)CC2)SC1c1ccccc1` (stereo not drawn) [Compound 78] yielded a Ki below 1000 nM. In addition, the IC50 in assay [2] was below 1000 nM. With `CC(C)CCN1C(=O)C(CC(=O)N2CCC(N3CCc4ccccc4NC3=O)CC2)SC1c1ccc(F)cc1Cl` (stereo not drawn) [Compound 79], the Ki in assay [1] was below 1000 nM. Further, the IC50 in assay [2] was below 1000 nM. With `COc1ccccc1C1SC(CC(=O)N2CCC(N3Cc4ccccc4NC3=O)CC2)C(=O)N1CCC(C)C` (stereo not drawn) [Compound 80], the Ki in assay [1] was below 1000 nM. The IC50 in assay [2] was below 1000 nM.

For the molecule `CC(C)CCN1C(=O)C(CC(=O)N2CCC(N3Cc4ccccc4NC3=O)CC2)SC12CCSCC2` (stereo not drawn) [Compound 84], the Ki in assay [1] is below 1000 nM. Further, the IC50 in assay [2] was below 1000 nM. `CC(C)CCN1C(=O)C(CC(=O)N2CCC(n3cc(-c4ccccc4)[nH]c3=O)CC2)SC1C1CCCC1` (stereo not drawn) [Compound 87] gave a Ki in assay [1] of 1000 to 5000 nM. The IC50 in assay [2] lay within 1000 to 5000 nM. `CC(C)(C)CCN1C(=O)C(CC(=O)N2CCC(N3CCc4ccccc4NC3=O)CC2)SC1c1ccccc1-n1cccn1` (stereo not drawn) [Compound 88] returned a Ki in assay [1] below 1000 nM. In addition, the IC50 in assay [2] was below 1000 nM. With `CC(C)(C)CCN1C(=O)C(CC(=O)N2CCC(N3Cc4ccccc4NC3=O)CC2)SC1c1ccccc1` (stereo not drawn) [Compound 93], the Ki in assay [1] is below 1000 nM. The IC50 in assay [2] is below 1000 nM.

In the case of `CC(C)(C)CCN1C(=O)[C@H](CC(=O)N2CCC(N3CCc4ccccc4NC3=O)CC2)SC1c1cccc(F)c1N1CCC(c2ccncc2)CC1` (stereo partly drawn) [Compound 557], the inhibition constant Ki in assay [1] is below 1000 nM. In assay [1], `CC(C)(C)CCN1C(=O)[C@H](CC(=O)N2CCC(N3CCc4ccccc4NC3=O)CC2)SC1c1cccc(F)c1C1CCN(C2CCC2)CC1` (stereo partly drawn) [Compound 558] displayed a Ki below 1000 nM.

The record behind these values is US8163737B2 (Vertex Pharmaceuticals Incorporated, priority 2006, dated 2012).
